This is an account of results in patent US8163793B2, “Proline derivatives” (Hoffman-La Roche Inc., priority 2009, dated 2012).

The target of one test is Cathepsin S (UniProt P25774). The test can be described thus: Cathepsin enzyme inhibition assay (fluorogenic peptide substrate Z-Val-Val-Arg-AMC), Cathepsin S. The following applies: enzyme 1 nM, substrate 20 μM, pH 6.5; read-out: CatS IC50. Type of test: biochemical, human and mouse. On the procedure: (§1) Cathepsin Enzyme Inhibition Assay
(§2) Enzyme activity is measured by observing the increase in fluorescence intensity caused by cleavage of a peptide substrate containing a fluorophore whose emission is quenched in the intact peptide.
(§3) Assay buffer: 100 mM potassium phosphate pH 6.5, EDTA-Na 5 mM, Triton X-100 0.001%, DDT 5 mM.
(§4) Enzymes (all at 1 nM): human and mouse Cathepsin S, Cat K, Cat B, Cat L Substrate (20 μM): Z-Val-Val-Arg-AMC, except for Cat K which uses Z-Leu-Arg-AMC (both from Bachem).
(§5) AMC=7-Amino-4-Methyl-Coumarin.
Enzyme is added to the substance dilutions in 96-well microtitre plates and the reaction is started with substrate. […] IC50 are calculated by standard methods. The results are expressed in μM in the following table.

A further test concerns the target Cat L (UniProt P07711). Nature of the test: Cathepsin enzyme inhibition assay (fluorogenic peptide substrate Z-Val-Val-Arg-AMC), Cathepsin L. The test is classed as biochemical, human and mouse. The following applies: enzyme 1 nM, substrate 20 μM, pH 6.5; read-out: CatL IC50. On the procedure:
as §1, §2, §3, §4, §5
Excitation 360 nm, Emission 465 nm.
Enzyme is added to the substance dilutions in 96-well microtitre plates and the reaction is started with substrate. Fluorescence emission is measured over 20 minutes, during which time a linear increase is observed in the absence of inhibitor. IC50 are calculated by standard methods. The results are expressed in μM in the following table.

The structures appear in SMILES notation. Where a name gives a salt, the structure may show the parent alone. Bounds are passed on as bounds.

In general, IC50 refers to the concentration that inhibits the measured activity by half. With `N#CC1(NC(=O)[C@@H]2C[C@@H](S(=O)(=O)c3ccc(-n4ccnc4)cc3C(F)(F)F)CN2)CC1` [Example 20, (2S,4R)-4-(4-Imidazol-1-yl-2-trifluoromethyl-benzenesulfonyl)-pyrrolidine-2-carboxylic acid (1-cyano-cyclopropyl)-amide hydrochloride], the results for the IC50 on Cathepsin S and at Cat L were 1 nM and at least 25000 nM, respectively.

In the case of `CN1CCN(c2ccc(S(=O)(=O)[C@H]3CN[C@H](C(=O)NC4(C#N)CC4)C3)c(C(F)(F)F)c2)CC1` [Example 21, (2S,4R)-4-[4-(4-Methyl-piperazin-1-yl)-2-trifluoromethyl-benzenesulfonyl]-pyrrolidine-2-carboxylic acid (1-cyano-cyclopropyl)-amide hydrochloride], the IC50 at Cathepsin S amounted to 0.8 nM; at Cat L, 40800 nM.

As for `N#CC1(NC(=O)[C@@H]2C[C@@H](S(=O)(=O)c3ccc(-n4cnc5ccccc54)cc3C(F)(F)F)CN2)CC1` [Example 22, (2S,4R)-4-(4-Benzoimidazol-1-yl-2-trifluoromethyl-benzenesulfonyl)-pyrrolidine-2-carboxylic Acid (1-cyano-cyclopropyl)-amide hydrochloride], the figures for the half-maximal inhibitory concentration (IC50) on Cathepsin S and at Cat L were 0.5 nM and at least 25000 nM, respectively.

On to `Cc1ccc(=O)n(-c2ccc(S(=O)(=O)[C@H]3CN[C@H](C(=O)NC4(C#N)CC4)C3)c(C(F)(F)F)c2)n1` [Example 23, (2S,4R)-4-[4-(3-M ethyl-6-oxo-6H-pyridazin-1-yl)-2-trifluoromethyl-benzenesulfonyl]-pyrrolidine-2-carboxylic acid (1-cyano-cyclopropyl)-amide hydrochloride], for which the figures for the IC50 on Cathepsin S and on Cat L were 0.9 nM and at least 25000 nM, respectively.

On to `Cc1nccn1-c1ccc(S(=O)(=O)[C@H]2CN[C@H](C(=O)NC3(C#N)CC3)C2)c(C(F)(F)F)c1` [Example 24, (2S,4R)-4-[4-(2-M ethyl-imidazol-1-yl)-2-trifluoromethyl-benzenesulfonyl]-pyrrolidine-2-carboxylic acid (1-cyano-cyclopropyl)-amide hydrochloride], for which the IC50 on Cathepsin S is 2.6 nM; on Cat L, at least 25000 nM.

For the compound `N#CC1(NC(=O)[C@@H]2C[C@@H](S(=O)(=O)c3ccc(-n4ccnc4-c4ccccc4)cc3C(F)(F)F)CN2)CC1` [Example 25, (2S,4R)-4-[4-(2-Phenyl-imidazol-1-yl)-2-trifluoromethyl-benzenesulfonyl]-pyrrolidine-2-carboxylic acid (1-cyano-cyclopropyl)-amide hydrochloride], the figures for the IC50 at Cathepsin S and on Cat L were 2.3 nM and at least 25000 nM, respectively.

On to `N#CC1(NC(=O)[C@@H]2C[C@@H](S(=O)(=O)c3ccc(N4CCCC4=O)cc3C(F)(F)F)CN2)CC1` [Example 26, (2S,4R)-4-[4-(2-Oxo-pyrrolidin-1-yl)-2-trifluoromethyl-benzenesulfonyl]-pyrrolidine-2-carboxylic acid (1-cyano-cyclopropyl)-amide hydrochloride], for which the results for the IC50 on Cathepsin S and on Cat L were 2.8 nM and at least 25000 nM, respectively.

Consider `N#CC1(NC(=O)[C@@H]2C[C@@H](S(=O)(=O)c3ccc(N4CCOC4=O)cc3C(F)(F)F)CN2)CC1` [Example 27, (2S,4R)-4-[4-(2-oxo-oxazolidin-3-yl)-2-trifluoromethyl-benzenesulfonyl]-pyrrolidine-2-carboxylic acid (1-cyano-cyclopropyl)-amide hydrochloride], for which the 50% inhibitory concentration (IC50) at Cathepsin S is 2.2 nM; on Cat L it was at least 25000 nM.

Turning to `N#CC1(NC(=O)[C@@H]2C[C@@H](S(=O)(=O)c3ccc(N4CCC(F)(F)C4)cc3C(F)(F)F)CN2)CC1` [Example 28, (2S,4R)-4-[4-(3,3-Difluoro-pyrrolidin-1-yl)-2-trifluoromethyl-benzenesulfonyl]-pyrrolidine-2-carboxylic acid (1-cyano-cyclopropyl)-amide hydrochloride], the IC50 was 1.5 nM on Cathepsin S and at least 25000 nM at Cat L.

Take `N#CC1(NC(=O)[C@@H]2C[C@@H](S(=O)(=O)c3ccc(N4CCOCC4)cc3C(F)(F)F)CN2)CC1` [Example 29, (2S,4R)-4-(4-Morpholin-4-yl-2-trifluoromethyl-benzenesulfonyl)-pyrrolidine-2-carboxylic acid (1-cyano-cyclopropyl)-amide hydrochloride]: the IC50 at Cathepsin S turned out to be 0.8 nM; on Cat L it was 39900 nM.

In the case of `N#CC1(NC(=O)[C@@H]2C[C@@H](S(=O)(=O)c3ccc(N4CCOCC4=O)cc3C(F)(F)F)CN2)CC1` [Example 30, (2S,4R)-4-[4-(3-Oxo-morpholin-4-yl)-2-trifluoromethyl-benzenesulfonyl]-pyrrolidine-2-carboxylic acid (1-cyano-cyclopropyl)-amide hydrochloride], the IC50 at Cathepsin S was 3 nM; on Cat L it was at least 25000 nM.

For the compound `N#CC1(NC(=O)[C@@H]2C[C@@H](S(=O)(=O)c3ccc(-n4ccccc4=O)cc3C(F)(F)F)CN2)CC1` [Example 31, (2S,4R)-4-[4-(2-Oxo-2H-pyridin-1-yl)-2-trifluoromethyl-benzenesulfonyl]-pyrrolidine-2-carboxylic acid (1-cyano-cyclopropyl)-amide hydrochloride], the IC50 on Cathepsin S was 2 nM; on Cat L, at least 25000 nM.

Turning to `N#CC1(NC(=O)[C@@H]2C[C@@H](S(=O)(=O)c3ccc(-n4ccncc4=O)cc3C(F)(F)F)CN2)CC1` [Example 32, (2S,4R)-4-[4-(2-Oxo-2H-pyrazin-1-yl)-2-trifluoromethyl-benzenesulfonyl]-pyrrolidine-2-carboxylic acid (1-cyano-cyclopropyl)-amide hydrochloride], the values for the IC50 on Cathepsin S and at Cat L were 5 nM and at least 25000 nM, respectively.

In the case of `CC(C)(C#N)NC(=O)[C@@H]1C[C@@H](S(=O)(=O)c2ccccc2Cl)CN1C(=O)OC(C)(C)C` [Example 33, (2S,4R)-4-(2-Chloro-benzenesulfonyl)-2-[(cyano-dimethyl-methyl)-carbamoyl]-pyrrolidine-1-carboxylic acid tert-butyl ester], the half-inhibitory concentration (IC50) on Cathepsin S was 675 nM; at Cat L, at least 25000 nM.

Regarding `CC(C)(C)OC(=O)N1C[C@H](S(=O)(=O)c2ccccc2Cl)C[C@H]1C(=O)NC1(C#N)CCC1` [Example 34, (2S,4R)-4-(2-Chloro-benzenesulfonyl)-2-(1-cyano-cyclobutylcarbamoyl)-pyrrolidine-1-carboxylic acid tert-butyl ester], the half-inhibitory concentration (IC50) at Cathepsin S is 766 nM; on Cat L, at least 25000 nM.

Regarding `CC(C)(C)OC(=O)N1C[C@H](S(=O)(=O)c2ccccc2Cl)C[C@H]1C(=O)NC1(C#N)CCCCC1` [Example 35, (2S,4R)-4-(2-Chloro-benzenesulfonyl)-2-(1-cyano-cyclohexylcarbamoyl)-pyrrolidine-1-carboxylic acid tert-butyl ester], the values for the IC50 at Cathepsin S and at Cat L were 4100 nM and at least 25000 nM, respectively.

As for `CC(C)(C)OC(=O)N1C[C@H](S(=O)(=O)c2ccccc2Cl)C[C@H]1C(=O)NC(C#N)c1ccccc1` (stereo partly drawn) [Example 36, (2S,4R)-4-(2-Chloro-benzenesulfonyl)-2-[(cyano-phenyl-methyl)-carbamoyl]-pyrrolidine-1-carboxylic acid tert-butyl ester], the values for the IC50 at Cathepsin S and on Cat L were 0.5 nM and 1270 nM, respectively.

In the case of `CC(C)(C)OC(=O)N1C[C@H](S(=O)(=O)c2ccccc2Cl)C[C@H]1C(=O)NC(C)(C#N)c1ccccc1` (stereo partly drawn) [Example 37, (2S,4R)-4-(2-Chloro-benzenesulfonyl)-2-[(cyano-methyl-phenyl-methyl)-carbamoyl]-pyrrolidine-1-carboxylic acid tert-butyl ester], the IC50 is 1030 nM on Cathepsin S and at least 25000 nM at Cat L.

For `CC(C)(C)OC(=O)N1C[C@H](S(=O)(=O)c2ccccc2C(F)(F)F)C[C@H]1C(=O)NC(C#N)C1CC1` (stereo partly drawn) [Example 38, (2S,4R)-2-[(Cyano-cyclopropyl-methyl)-carbamoyl]-4-(2-trifluoromethyl-benzenesulfonyl)-pyrrolidine-1-carboxylic acid tert-butyl ester], the half-inhibitory concentration (IC50) is 5 nM at Cathepsin S and at least 25000 nM on Cat L.

Turning to `Cc1ccc(S(=O)(=O)[C@@H]2C[C@@H](C(=O)NC3(C#N)CC3)N(C(=O)OC(C)(C)C)C2)c(C)c1` [Example 39, (2S,4R)-2-(1-Cyano-cyclopropylcarbamoyl)-4-(2,4-dimethyl-benzenesulfonyl)-pyrrolidine-1-carboxylic acid tert-butyl ester], the values for the IC50 at Cathepsin S and on Cat L were 2.2 nM and 50200 nM, respectively.

For the compound `Cc1cc(Cl)ccc1S(=O)(=O)[C@@H]1C[C@@H](C(=O)NC2(C#N)CC2)N(C(=O)OC(C)(C)C)C1` [Example 40, (2S,4R)-4-(4-Chloro-2-methyl-benzenesulfonyl)-2-(1-cyano-cyclopropylcarbamoyl)-pyrrolidine-1-carboxylic acid tert-butyl ester], the values for the IC50 on Cathepsin S and on Cat L were 5.2 nM and 41400 nM, respectively.

As to `CC(C)(C)OC(=O)N1C[C@H](S(=O)(=O)c2cccc(Cl)c2Cl)C[C@H]1C(=O)NC1(C#N)CC1` [Example 41, (2S,4R)-2-(1-Cyano-cyclopropylcarbamoyl)-4-(2,3-dichloro-benzenesulfonyl)-pyrrolidine-1-carboxylic acid tert-butyl ester], the IC50 on Cathepsin S was 31.2 nM; on Cat L, at least 25000 nM.

In the case of `N#CC1(NC(=O)[C@@H]2C[C@@H](S(=O)(=O)c3ccccc3C(F)(F)F)CN2)CC1` [Example 43, (2S,4R)-4-(2-Trifluoromethyl-benzenesulfonyl)-pyrrolidine-2-carboxylic acid (1-cyano-cyclopropyl)-amide], the IC50 is 2.2 nM on Cathepsin S and at least 25000 nM on Cat L.
